# Tests used:
# Format in all cases: in vivo, rat
# TNF-α = assay: Serum TNF-α ELISA in TNBS-induced colitis; settings: means±SE, n = 8
# Description: Chronic colitis was induced by weekly rectal injections of increasing doses of TNBS over 6 weeks (15, 30, 45, 60, 60, and 60 mg from day 0 to day 35), as previously described (4,12). Briefly, after food deprivation for 24 h, rats were anesthetized with an intraperitoneal injection of 1% isoflurane. TNBS was dissolved in ethanol (50%) and instilled into the colon using a cannula (0.25 mL), and then the rats were held upside down for 3 min to prevent escape of the intracolonic TNBS. Roflumilast was dissolved in dimethyl sulfoxide and diluted in 0.5% carboxymethyl cellulose sodium to a final concentration of 5.0 mg·kg^−1·day^−1 as previously described (13). Five groups of rats (n=8) were established: normal control (NC group), TNBS-treated (TNBS group, positive control), and three TNBS-treated groups that received oral sulfasalazine (SS group, 500 mg/kg) (14), oral roflumilast (by gastric gavage, OR group, 5 mg/kg), or rectal roflumilast (RR group, 5 mg/kg). Treatments were administered once daily in a volume of 200 μL for 15 days starting 48 h after the induction of colitis (from day 37) (15), and the control rats received equal amounts of vehicle. At the end of the treatment period, the rats were evaluated with the colitis activity score. To detect the effects of the treatments on systemic inflammatory processes, blood was collected for measurements of the proinflammatory mediators TNF-α, IL-2, and IL-6. At the end of the 15-day treatment period, the rats were sacrificed by cervical dislocation, and the colon was isolated, cleaned of feces, and measured for weight and length. Colonic myeloperoxidase (MPO) activity and glutathione (GSH) and malonaldehyde (MDA) levels were measured. The colon was examined macroscopically for gross changes and microscopically in sections stained with hematoxylin and eosin (H&E), Masson trichrome, and Periodic Acid Schiff (PAS) stains as well as KI-67 and TNF-α immunostaining. Blood was collected through cardiac puncture. The serum was obtained and stored at −80° C. until analysis. […]
# [1] = test system: trinitrobenzenesulfonic acid (TNBS)-induced colitis; assay: Disease activity score in TNBS-induced chronic colitis; settings: oral, once daily for 15 days; sulfasalazine 500 mg/kg, roflumilast 5 mg/kg; vs TNBS group
# Description: Chronic colitis was induced by weekly rectal injections of increasing doses of TNBS over 6 weeks (15, 30, 45, 60, 60, and 60 mg from day 0 to day 35), as previously described (4,12). Briefly, after food deprivation for 24 h, rats were anesthetized with an intraperitoneal injection of 1% isoflurane. TNBS was dissolved in ethanol (50%) and instilled into the colon using a cannula (0.25 mL), and then the rats were held upside down for 3 min to prevent escape of the intracolonic TNBS. Roflumilast was dissolved in dimethyl sulfoxide and diluted in 0.5% carboxymethyl cellulose sodium to a final concentration of 5.0 mg·kg^−1·day^−1 as previously described (13). […] At the end of the treatment period, the rats were evaluated with the colitis activity score. […] At the end of the 15-day treatment period, the rats were sacrificed by cervical dislocation, and the colon was isolated, cleaned of feces, and measured for weight and length. Colonic myeloperoxidase (MPO) activity and glutathione (GSH) and malonaldehyde (MDA) levels were measured. […] The colitis activity index was determined to evaluate the activity of intestinal inflammation as previously described with a slight modification (16). […]
# [2] = test system: trinitrobenzenesulfonic acid (TNBS)-induced colitis; assay: Histopathological examination of colonic sections (H&E, Masson trichrome, PAS)
# Description: Chronic colitis was induced by weekly rectal injections of increasing doses of TNBS over 6 weeks (15, 30, 45, 60, 60, and 60 mg from day 0 to day 35), as previously described (4,12). Briefly, after food deprivation for 24 h, rats were anesthetized with an intraperitoneal injection of 1% isoflurane. TNBS was dissolved in ethanol (50%) and instilled into the colon using a cannula (0.25 mL), and then the rats were held upside down for 3 min to prevent escape of the intracolonic TNBS. Roflumilast was dissolved in dimethyl sulfoxide and diluted in 0.5% carboxymethyl cellulose sodium to a final concentration of 5.0 mg·kg^−1·day^−1 as previously described (13). Five groups of rats (n=8) were established: normal control (NC group), TNBS-treated (TNBS group, positive control), and three TNBS-treated groups that received oral sulfasalazine (SS group, 500 mg/kg) (14), oral roflumilast (by gastric gavage, OR group, 5 mg/kg), or rectal roflumilast (RR group, 5 mg/kg). Treatments were administered once daily in a volume of 200 μL for 15 days starting 48 h after the induction of colitis (from day 37) (15), and the control rats received equal amounts of vehicle. At the end of the treatment period, the rats were evaluated with the colitis activity score. To detect the effects of the treatments on systemic inflammatory processes, blood was collected for measurements of the proinflammatory mediators TNF-α, IL-2, and IL-6. At the end of the 15-day treatment period, the rats were sacrificed by cervical dislocation, and the colon was isolated, cleaned of feces, and measured for weight and length. Colonic myeloperoxidase (MPO) activity and glutathione (GSH) and malonaldehyde (MDA) levels were measured. The colon was examined macroscopically for gross changes and microscopically in sections stained with hematoxylin and eosin (H&E), Masson trichrome, and Periodic Acid Schiff (PAS) stains as well as KI-67 and TNF-α immunostaining. The colonic segments were fixed in 10% buffered formalin and embedded in paraffin. Afterwards, 3-5-μm-thick sections were made and stained with H&E, Masson's trichrome for collagen, and PAS for […] and mucopolysaccharides. The severity of the lesions was evaluated by a blinded histopathologist as normal, mild, moderate, or marked injury (21).
# [3] = oral, once daily for 15 days, SS 500 mg/kg, OR 5 mg/kg
# [4] = rectal, 5 mg/kg once daily for 15 days
# [5] = oral, once daily for 15 days, sulfasalazine 500 mg/kg, roflumilast 5 mg/kg
SMILES,serum level of TNF-α (TNF-α; [3]),serum level of TNF-α (TNF-α; [4]),Disease activity score [1],"PAS-stained goblet cells [2, 5]","collagen deposition, Masson trichrome [2, 5]","colonic sections stained with H&E, improvement [2, 5]","PAS-stained goblet cells [2, 4]","collagen deposition, Masson trichrome [2, 4]","colonic sections stained with H&E, improvement [2, 4]"
O=C(Nc1c(Cl)cncc1Cl)c1ccc(OC(F)F)c(OCC2CC2)c1 [roflumilast],"38.87 ± 2.33^a, b, f pg/mL","79.37 ± 1.88^a, c, e pg/mL",decreased the score more than rectal roflumilast,moderate population,moderate decrease,moderate improvement,small population,mild decrease,mild improvement
O=C(O)c1cc(/N=N/c2ccc(S(=O)(=O)Nc3ccccn3)cc2)ccc1O [sulfasalazine],"28.93 ± 0.5^b, d pg/mL",,greatest decrease,nearly normal population,marked decrease,marked improvement,,,
